Assay results: article PMC6585933 (Clinical Pharmacology in Drug Development, 2018)
Where “and” joins values, the source holds several entries; their conditions need not be identical. Equal entries are not always repeated. Where two headings read alike, the source gives them in different places.

Assays:
[1] = cited from earlier work
[2] = type: in vivo, human; details: for AUC: AUC0–tn; for AUC(0-inf): AUC0–∞
OAT1 = details: ^14C‐amenamevir, ref unpublished data held by Maruho; cited from earlier work
CYP3A4 = details: human hepatocytes, 1 to 100 μM; ref unpublished data held by Maruho; cited from earlier work
OATP1B3 = details: ^14C‐amenamevir, ref unpublished data held by Maruho; cited from earlier work
[3] = tested on: cytochrome P450 (CYP) 3A4/5; details: human liver microsomes; ref unpublished data held by Maruho; cited from earlier work
[4] = amenamevir plus ketoconazole vs amenamevir alone; cited from earlier work
OAT3 = details: ^14C‐amenamevir, ref unpublished data held by Maruho; cited from earlier work
[5] = tested on: human multidrug resistance transporter P‐glycoprotein (P‐gp); details: ^14C‐amenamevir, cells expressing P‐gp; ref unpublished data held by Maruho; cited from earlier work
[6] = tested on: organic cation uptake transporter‐2; details: ^14C‐amenamevir, organic cation uptake transporter‐2–expressing cells; ref unpublished data held by Maruho; cited from earlier work
[7] = ^14C‐amenamevir in humans; ref unpublished data held by Maruho; cited from earlier work
[8] = tested on: acyclovir‐resistant VZV strains; details: in vitro; cited from earlier work
[9] = type: in vivo, human; details: for CL/F, arithmetic mean / Tmax: plasma; for CL/F, arithmetic mean: n = 24; for Tmax: male, human, po
OATP1B1 = details: ^14C‐amenamevir, ref unpublished data held by Maruho; cited from earlier work
CYP3A4/5 = details: read-out: half maximal inhibitory concentration, very weak or no inhibitory activity, ref unpublished data held by Maruho; cited from earlier work
[10] = single oral dose of 200 mg ^14C‐amenamevir; ref unpublished data held by Maruho; cited from earlier work
[11] = type: in vivo, human; details: for CL/F, arithmetic mean: N = 24; for AUC0‐∞, ratio amenamevir with ritonavir vs amenamevir alone / Cmax, ratio amenamevir with ritonavir vs amenamevir alone: ritonavir 600 mg; for AUC: AUC0‐∞; for AUC / Cmax: LS mean, n = 24; for Tmax: po
[12] = saquinavir with a single concomitant dose of 600‐mg ritonavir; cited from earlier work
[13] = midazolam with rifampicin as inducer
[14] = Day 12 midazolam 7.5 mg with amenamevir 400 mg vs Day 1 midazolam alone
[15] = Day 19, midazolam 7.5 mg alone, 7 days after last amenamevir dose, n = 18
[16] = after amenamevir 400 mg once daily for 10 days
[17] = male, human, plasma, oral, arithmetic mean, Day 12, midazolam 7.5 mg with amenamevir 400 mg (last of 10 daily doses), n = 18
[18] = male, human, plasma, oral, geometric mean, Day 12, midazolam 7.5 mg with amenamevir 400 mg (last of 10 daily doses), n = 18
[19] = male, human, plasma, oral, LS mean, Day 12, midazolam 7.5 mg with amenamevir 400 mg (last of 10 daily doses), n = 18
[20] = amenamevir 400 mg with ritonavir 600 mg
[21] = amenamevir 1200 mg with ritonavir 600 mg
[22] = amenamevir 400‐mg or 1200‐mg with single 600‐mg dose of ritonavir
[23] = male, human, plasma, 1200 mg, amenamevir 1200 mg alone
[24] = male, human, plasma, amenamevir 400 mg with ritonavir 600 mg
[25] = male, human, plasma, amenamevir 1200 mg with ritonavir 600 mg

## Cc1ncc2n1-c1ccc(Cl)cc1C(c1ccccc1F)=NC2 [midazolam]
[1]; midazolam before rifampicin
  mean elimination half‐life: 3.2 h
[1]; [13]
  reduction of AUC: 64 fold
  reduction of Cmax: 27 fold
[2]; CYP3A‐inducing effect of amenamevir
  reduction in plasma concentrations of midazolam: 52%
[2]; Day 1, midazolam 7.5 mg oral alone (control), plasma, n = 18
  CL/F, arithmetic mean: 68.5 L/h
[2]; Day 12, midazolam 7.5 mg with amenamevir 400 mg (last of 10 daily doses), n = 18
  CL/F, arithmetic mean: 134.3 L/h
[2]; [14]
  AUC0–∞, LS mean ratio vs control (90%CI): ~51%
  Cmax, LS mean ratio vs control (90%CI): about 68%
[2]; [15]
  CL/F, arithmetic mean: 63 L/h
  Tmax, median: 30 min
[2]; Day 19 midazolam alone vs Day 1 midazolam alone
  AUC0–∞, LS mean ratio vs control: 110%
[2]; Day 26, midazolam 7.5 mg alone, 14 days after last amenamevir dose, n = 18
  CL/F, arithmetic mean: 65.2 L/h
[2]; Day 26 midazolam alone vs Day 1 midazolam alone
  AUC0–∞, LS mean ratio vs control: 108%
[2]; [16]
  reduction of Cmax of midazolam: about 32%
  reduction of average concentrations (AUC) of midazolam: about 51%
[2]; [17]
  AUC: 59 ng·h/mL
  AUC(0-inf): 60.3 ng·h/mL
  Cmax: 24.5 ng/mL
[2]; [18]
  AUC: 56.7 ng·h/mL
  AUC(0-inf): 58 ng·h/mL
  Cmax: 23.4 ng/mL
[2]; [19]
  AUC(0-inf): 58 ng·h/mL
  Cmax: 23 ng/mL
[2]; male, human, plasma, oral, t1/2, arithmetic mean, Day 12, midazolam 7.5 mg with amenamevir 400 mg (last of 10 daily doses), n = 18
  half-life: 222 min
[2]; male, human, plasma, po, 7.5 mg
  Tmax: 30 min

## Cc1cccc(C)c1N(CC(=O)Nc1ccc(-c2ncon2)cc1)C(=O)C1CCS(=O)(=O)CC1 [amenamevir]
OAT1
  uptake into transporter‐expressing cells: no uptake
CYP3A4
  induction of CYP3A4: showed the potential to induce CYP3A4
OATP1B3
  uptake into transporter‐expressing cells: no uptake
[3]
  role of CYP3A4/5 in the metabolism of amenamevir: main isozymes
[4]
  geometric mean ratio for AUCinf (90%CI): 2.58 (90%CI, 2.32‐2.87)
  geometric mean ratio for Cmax (90%CI): 1.30 (90%CI, 1.17‐1.45)
OAT3
  uptake into transporter‐expressing cells: no uptake
[5]
  substrate of the human multidrug resistance P‐gp transporter: is a substrate
[6]
  uptake into transporter‐expressing cells: no uptake
[7]
  plasma protein binding: about 75%
[8]
  activity against acyclovir‐resistant VZV strains: good activity
[9]; amenamevir 400 mg single oral dose alone (control)
  CL/F, arithmetic mean: 17.7 L/h
[9]; amenamevir 1200 mg single oral dose alone (control)
  CL/F, arithmetic mean: 25.7 L/h
[9]; amenamevir 1200 mg with cyclosporine 100 mg twice daily
  geometric mean (90%CI) AUC0‐∞ as % of that after amenamevir alone: ~79(73, 85) % and ~79%
[9]; 400 mg
  Tmax: 3 h
[9]; 1200 mg
  Tmax: 3 h
OATP1B1
  uptake into transporter‐expressing cells: no uptake
CYP3A4/5
  IC50: > 100 µM
[10]
  ^14C radioactivity recovered in feces: 74.6%
[11]; amenamevir 400 mg single oral dose alone, plasma
  CL/F, arithmetic mean: 18.3 L/h
[11]; [20]
  geometric mean AUC0‐∞, times higher than after amenamevir alone: about 2.6 times higher
  geometric mean Cmax, times higher than after amenamevir alone: about 1.4 times higher
[11]; amenamevir 400 mg with single dose ritonavir 600 mg
  CL/F, arithmetic mean: 6.8 L/h
[11]; amenamevir 400 mg
  AUC0‐∞, ratio amenamevir with ritonavir vs amenamevir alone: 260%
  Cmax, ratio amenamevir with ritonavir vs amenamevir alone: 136%
[11]; amenamevir 1200 mg single oral dose alone, plasma
  CL/F, arithmetic mean: 25.7 L/h
[11]; [21]
  geometric mean AUC0‐∞, times higher than after amenamevir alone: ~3.3 times higher
  geometric mean Cmax, times higher than after amenamevir alone: ~1.6 times higher
[11]; amenamevir 1200 mg with single dose ritonavir 600 mg
  CL/F, arithmetic mean: 7.6 L/h
[11]; amenamevir 1200 mg
  AUC0‐∞, ratio amenamevir with ritonavir vs amenamevir alone: 334%
  Cmax, ratio amenamevir with ritonavir vs amenamevir alone: 163%
[11]; [22]
  increase in AUC: > 3 fold
  increase in Cmax: about 1.5 fold
[11]; male, human, plasma, 400 mg, amenamevir 400 mg alone
  AUC: 23200 ng·h/mL
[11]; [23]
  AUC: 48500 ng·h/mL
  Cmax: 3800 ng/mL
[11]; [24]
  AUC: 60200 ng·h/mL
  Cmax: 2520 ng/mL
[11]; [25]
  AUC: 162000 ng·h/mL
  Cmax: 6210 ng/mL
[11]; male, human, plasma, geometric mean elimination half‐life, amenamevir alone, irrespective of the dose (400 mg and 1200 mg)
  half-life: ~420 min
[11]; male, human, plasma, oral, 400 mg, amenamevir 400 mg alone
  Cmax: 1850 ng/mL
[11]; male, human, plasma, 400 mg
  Tmax: 3 h
[11]; male, human, plasma, 1200 mg
  Tmax: 3 h
[11]; with 400‐mg amenamevir (ritonavir study group)
  treatment‐emergent adverse event headache, frequency: 16.7%
[11]; with 1200‐mg amenamevir (ritonavir study group)
  treatment‐emergent adverse event headache, frequency: 29.2%

## CC(C)(C)NC(=O)[C@@H]1C[C@@H]2CCCC[C@@H]2CN1C[C@@H](O)[C@H](Cc1ccccc1)NC(=O)[C@H](CC(N)=O)NC(=O)c1ccc2ccccc2n1 [saquinavir]
[12]
  increase of plasma concentrations: > 50 fold

## OCc1ncc2n1-c1ccc(Cl)cc1C(c1ccccc1F)=NC2 [1‐hydroxymidazolam]
[2]; metabolite after midazolam 7.5 mg with amenamevir 400 mg
  plasma concentrations, influence of coadministration of amenamevir: not influenced

## CC(C)c1nc(CN(C)C(=O)N[C@H](C(=O)N[C@@H](Cc2ccccc2)C[C@H](O)[C@H](Cc2ccccc2)NC(=O)OCc2cncs2)C(C)C)cs1 [ritonavir, reference compound]
[11]; ritonavir 600 mg single dose with amenamevir 400 mg, n 24
  t1/2, geometric mean: 4.5 h
